Measurements taken from US20060160869A1, “Ubiquitin ligase inhibitors” (Rigel Pharmaceuticals, Inc., priority 2005, published 2006).
Like-named read-outs stand apart in the source and are kept apart here.

Tests used:
MDM2 [1] = target: T1, MDM2 (Homo sapiens, UniProt Q00987); experiment: Plate-based E3 ligase assay, MDM2 autoubiquitination (MDM2-FLAG); assay type: biochemical
Procedure: E3 (His-APC11/APC2—“APC”) auto-ubiquitination was measured as described in U.S. patent application Ser. No. 09/826,312 (Publication No. US-2002-0042083-A1), which is incorporated herein in its entirety. Details of the protocol are described below. Activity in the presence of the compound was determined relative to a parallel control in which only DMSO was added. Values of the IC50 were typically determined using 6 or 8 different concentrations of the compound, although as few as 2 concentrations may be used to approximate the IC50 value.
Nickel-coated 96-well plates (Pierce 15242) were blocked for 1 hour with 100 μl of blocking buffer at room temperature. The plates were washed 4 times with 225 μl of 1×PBS and 80 μl of the reaction buffer were added that contained 100 ng/well of Flag-ubiquitin. To this, 10 μl of the test compound diluted in DMSO were added. After the test compound was added, 10 μl of E1 (human), E2 (Ubch5c), and APC in Protein Buffer was added to obtain a final concentration of 5 ng/well of E1, 20 ng/well: of E2 and 100 ng/well of APC. The plate were shaken for 10 minutes and incubated at room temperature for 1 hour. After incubation, the plates were washed 4 times with 225 μl of 1×PBS and 100 μl/well of Antibody Mix were added to each well. The plates were incubate at room temperature for another hour after which they were washed 4 times with 225 μl of 1×PBS and 100 μl/well of Lumino substrate were added to each well. The luminescence was measured by using a BMG luminescence microplate reader.
In similar manner, autoubiquitination of the E3 MDM2 was determined (MDM2-FLAG). Further instruction in such assays can be found in U.S. patent application Ser. No. 10/108,767 (Publication No. US-2003-0104474 A1), which is incorporated herein in its entirety.
(§1) hMDM2 Plate/Gel is Mouse double minute 2, human homolog. This protein belongs to the E3 RING finger ligase group.

MDM2 [2] = target: T1, MDM2; experiment: MDM2 gel-based E3 ligase assay; assay type: biochemical; settings: compound at 20 μM; result in words
Procedure: E3 (His-APC11/APC2—“APC”) auto-ubiquitination was measured as described in U.S. patent application Ser. No. 09/826,312 (Publication No. US-2002-0042083-A1), which is incorporated herein in its entirety. Details of the protocol are described below. Activity in the presence of compound was determined relative to a parallel control in which only DMSO is added. The IC50 values were typically determined using 6 or 8 different concentrations of compound, although as few as 2 concentrations may be used to approximate the IC50 values.
Corning 96-well plates (Corning 3650) were blocked with 100 μl of Blocking Buffer for 1 hour at room temperature. The plates were washed 4 times with 225 μl of 1×PBS and 80 μl of the reaction buffer were added that contained 100 ng/well of Flag-ubiquitin. To this, 10 μl of the test compound diluted in DMSO were added. After the test compound was added, 10 μl of E1 (human), E2 (Ubch5c) and APC in Protein Buffer were added to obtain a final concentration of 5 ng/well of E1, 20 ng/well of E2 and 100 ng/well APC. The plates were shaken for 10 minutes and incubated at room temperature for 1 hour. After incubation, the reaction was stopped by adding 25 μl of loading buffer (non-reducing) per well and the plates were heated at 95° C. for 5 minutes. An aliquot of each well was run on a 10% NugePage Gel and analyzed by Western Blot using the antibody mix and Lumino substrate described below. The luminescence was measured by using a BMG luminescence microplate reader.
as §1

[3] = tested on: p53 reporter system in p53 wild-type U2OS cell line; experiment: p53-dependent transcription reporter assay, U20SRE; assay type: cell-based; settings: p53 +ve cell type; maximal fold induction over DMSO control
Excerpt: Stable lines of U2OS (osteosarcoma; Wild-type p53 positive), HCT116 (colorectal carcinoma; Wild-type p53 positive) and H1299 (lung non-small cell carcinoma; p53 null) carrying p53-dependent transcriptional regulatory element linked to a Luciferase reporter gene and H1299 carrying a 5′-regulatory region of GADD45 linked to Luciferase were used.
Day 1: Cells were re-plated into 96-well plates at suitable densities to make 50-60% confluence on Day 2. The plating densities are as follows: 7.5×10^3 cells/well (or 2.5×10^4 cells/cm^2) for U2OS; 1.5×10^4 cells/well (or 5.0×10^4 cells/cm^2) for HCT116; and 1.0×10^4 cells/well (or 3.3×10^4 cells/cm^2) for H1299.
Day 2: The compounds or control drugs were diluted in dimethyl sulfoxide (DMSO) and added to the wells to create 6-points/2-fold serial dilution (20, 10, 5, 2.5, 1.25, 0.625 and 0 μM) for each compound. The DMSO concentration was adjusted to 0.2% in all wells.
Day 3: Twenty to 24 hours after compound addition, cells were twice washed with PBS and lysed with Glo-lysis buffer (100 μl/well, Promega; Cat#E2661). Plates were subjected to gentle agitation on a table-top shaker for 5 minutes at room temperature. Fifty μl of lysate was transferred to an assay plate to test for luciferase activity and mixed with 2× assay buffer (Promega; Cat# E1483). The reaction mixture was left at room temperature for 2 minutes and then luminescence was measure by a luminometer (Victor™, 1420 Multilabel Counter, Wallac).
Data analysis was done on Excel software (Microsoft). Values in Table 4 represent maximal fold induction over negative control (DMSO only) and are the mean of at least duplicate experiments.
U20SRE is a p53 wild-type U2OS cell line containing p53 reporter system. If the compound acts against MDM2, p53 activity increases.

[4] = Table 3, read-out: MDM2 Plate IC50

T1 sequence (Q00987 whole entry): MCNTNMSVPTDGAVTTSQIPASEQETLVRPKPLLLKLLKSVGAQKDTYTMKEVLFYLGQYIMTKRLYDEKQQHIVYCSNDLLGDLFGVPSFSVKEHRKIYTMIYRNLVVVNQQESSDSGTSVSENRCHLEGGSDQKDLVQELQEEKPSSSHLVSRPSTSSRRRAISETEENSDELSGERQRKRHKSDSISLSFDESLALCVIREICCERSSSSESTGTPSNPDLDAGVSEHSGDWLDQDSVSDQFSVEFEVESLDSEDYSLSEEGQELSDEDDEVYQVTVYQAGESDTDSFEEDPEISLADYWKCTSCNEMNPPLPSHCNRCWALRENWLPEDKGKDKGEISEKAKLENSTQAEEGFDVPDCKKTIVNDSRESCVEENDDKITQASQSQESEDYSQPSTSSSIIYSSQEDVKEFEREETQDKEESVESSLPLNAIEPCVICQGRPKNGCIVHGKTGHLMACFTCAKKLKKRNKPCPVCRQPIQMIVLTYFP

Compound	IC50 (MDM2 [1]; Table 2, read-out: MDM2 IC50) [nM]	IC50 (MDM2 [1]; [4]) [nM]	MDM2 Gel 20 μM (MDM2 [2])	Fold Induction of p53 activity, U20SRE [3]
O=C(c1ccc(CN(Cc2cccc(OC(F)(F)F)c2)c2nc(-c3ccc4ccccc4c3)cs2)cc1)N1CCNCC1 [compound 282, 4-(2-naphthyl)-N-[4-(piperazin-1-ylcarbonyl)benzyl]-N-[3-(trifluoromethoxy)benzyl]-1,3-thiazol-2-amine]	1000 to 20000	1000 to 20000	Potent	b (b means greater than 2)
O=C(c1ccc(CN(CCOc2ccccc2)c2nc(-c3ccc(Cl)c(Cl)c3)cs2)cc1)N1CCNCC1 [compound 360]	1000 to 20000	< 1000	Potent	b (b means greater than 2)
O=C(c1ccc(CN(Cc2cccc(OC(F)(F)F)c2)c2nc(-c3ccccc3)cs2)cc1)N1CCNCC1 [compound 275]	1000 to 20000	1000 to 20000	Weak	b (b means greater than 2)

Other lines, results leading:

IC50 (MDM2 [1]; Table 2, read-out: MDM2 IC50) [nM]	IC50 (MDM2 [1]; [4]) [nM]	MDM2 Gel 20 μM (MDM2 [2])	Fold Induction of p53 activity, U20SRE [3]	Compound
1000 to 20000	1000 to 20000	Active	b (b means greater than 2)	COc1cccc(-c2csc(N(Cc3ccc(C(=O)N4CCNCC4)cc3)Cc3cccc(OC(F)(F)F)c3)n2)c1 [compound 351]
1000 to 20000	1000 to 20000	Weak	b (b means greater than 2)	COc1cccc(-c2csc(N(CCOc3ccccc3)Cc3ccc(C(=O)N4CCNCC4)cc3)n2)c1 [compound 352]
1000 to 20000	1000 to 20000	Active	a (a means 2 or less)	COc1cccc(CN(Cc2ccc(C(=O)N3CCNCC3)cc2)c2nc(-c3ccc(Br)cc3)cs2)c1OC [compound 353]
